According to US20250270200A1, “CTPS1 INHIBITORS AND USES THEREOF” (Nimbus Clotho, Inc., priority 2022, published 2025):
Where a name gives a salt, the structure may show the parent alone.

target: T1, human CTPS1 (Homo sapiens, UniProt P17812); assay: ADP-Glo assay, human CTPS1 enzyme inhibition; assay type: biochemical; conditions: wild-type human CTPS1 25 nM; ATP 120 μM, UTP 160 μM, GTP 60 μM, L-glutamine 100 μM; 25 degrees C.; read-out: ADP-Glo_WT_hCTPS1—25 nM_IC50 (IC50)
T1 sequence (P17812 1-591): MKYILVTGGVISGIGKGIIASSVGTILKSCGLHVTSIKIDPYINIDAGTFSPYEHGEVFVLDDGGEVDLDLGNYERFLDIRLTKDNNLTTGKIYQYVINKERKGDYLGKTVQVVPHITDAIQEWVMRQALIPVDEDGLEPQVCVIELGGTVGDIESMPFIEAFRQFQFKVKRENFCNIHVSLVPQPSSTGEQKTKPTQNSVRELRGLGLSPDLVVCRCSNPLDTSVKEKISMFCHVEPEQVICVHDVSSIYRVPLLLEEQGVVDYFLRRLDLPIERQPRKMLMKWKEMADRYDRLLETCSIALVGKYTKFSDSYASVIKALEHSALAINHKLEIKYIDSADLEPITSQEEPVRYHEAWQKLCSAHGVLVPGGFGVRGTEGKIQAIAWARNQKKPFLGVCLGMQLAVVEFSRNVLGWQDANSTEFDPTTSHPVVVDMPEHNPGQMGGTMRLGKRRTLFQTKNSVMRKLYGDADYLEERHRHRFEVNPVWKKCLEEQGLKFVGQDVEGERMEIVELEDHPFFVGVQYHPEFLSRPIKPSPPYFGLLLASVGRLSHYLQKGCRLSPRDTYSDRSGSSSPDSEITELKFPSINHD
Summary of the method: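 ADP-Glo luminescence quantified ADP produced by 25 nM purified human CTPS1 (full length, FLAG-His tagged) at 25° C within the linear phase. Final substrates: ATP 120 μM, UTP 160 μM, GTP 60 μM, L-glutamine 100 μM; 1% DMSO; pH 7.4 HEPES buffer with Mg2+, KCl, DTT. Compound pre-incubated with enzyme 10 min, then with ATP/UTP 10 min.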

IC50 [nM]	Structure (SMILES)
5 to 25	O=C(N[C@H](c1cc(NS(=O)(=O)C2CC2)ccn1)C1CCOCC1)c1nnc(-c2cnn3ccc(Cl)cc23)s1 (single isomer, unassigned) [II-15]

same assay, conditions: wild-type human CTPS1, 25 nM enzyme; ADP-Glo; read-out: ADP-Glo_WT_hCTPS1—25 nM_IC50 (IC50)

Structure (SMILES)	IC50 [nM]
CCOc1cncc(-c2cnc(C(=O)N[C@H](CN3C[C@H]4C[C@@H]3CO4)c3cccc(NS(=O)(=O)C(F)F)c3)s2)n1 [I-205, N-((S)-2-((1R,4R)-2-oxa-5-azabicyclo[2.2.1]heptan-5-yl)-1-(3-((difluoromethyl)sulfonamido)phenyl)ethyl)-5-(6-ethoxypyrazin-2-yl)thiazole-2-carboxamide, formic acid salt]	25 to 50
CCOc1cncc(-c2cnc(C(=O)N[C@H](CN3C[C@H]4CC[C@@H]3C4)c3cccc(NS(=O)(=O)C(F)F)c3)s2)n1 [I-211, N-((S)-2-((1R,4S)-2-azabicyclo[2.2.1]heptan-2-yl)-1-(3-((difluoromethyl)sulfonamido)phenyl)ethyl)-5-(6-ethoxypyrazin-2-yl)thiazole-2-carboxamide]	50 to 100
CCOc1cncc(-c2cnc(C(=O)N[C@@H](COC)c3nccc(NS(=O)(=O)C4CC4)n3)s2)n1 [I-98, (R)-N-(1-(4-(cyclopropanesulfonamido)pyrimidin-2-yl)-2-methoxyethyl)-5-(6-ethoxypyrazin-2-yl)thiazole-2-carboxamide]	25 to 50
CCOc1cncc(-c2cnc(C(=O)NCc3ccnc(NS(=O)(=O)C4CC4)n3)s2)n1 [I-178, N-((2-(cyclopropanesulfonamido)pyrimidin-4-yl)methyl)-5-(6-ethoxypyrazin-2-yl)thiazole-2-carboxamide]	25 to 50
CCOc1cncc(-c2cnc(C(=O)N[C@H](CN3CCCCC3)c3cccc(NS(=O)(=O)C(F)F)c3)s2)n1 [I-218, (S)-N-(1-(3-((difluoromethyl)sulfonamido)phenyl)-2-(piperidin-1-yl)ethyl)-5-(6-ethoxypyrazin-2-yl)thiazole-2-carboxamide]	25 to 50
CCOc1cncc(-c2cnc(C(=O)N[C@H](c3cccc(NS(=O)(=O)C(F)F)c3)[C@H]3CCOC3)s2)n1 [I-187, N-((S)-(3-((difluoromethyl)sulfonamido)phenyl)((R)-tetrahydrofuran-3-yl)methyl)-5-(6-ethoxypyrazin-2-yl)thiazole-2-carboxamide]	5 to 25
CCOc1cncc(-c2ccc(C(=O)N[C@@H](CCN3CCCCC3)c3cc(NS(=O)(=O)C4CC4)ccn3)c(F)c2F)n1 (single isomer, unassigned) [I-6]	> 100
CCOc1cncc(-c2cnc(C(=O)NCc3cc(NS(=O)(=O)C4CC4)ncn3)s2)n1 [I-5, N-((6-(cyclopropanesulfonamido)pyrimidin-4-yl)methyl)-5-(6-ethoxypyrazin-2-yl)thiazole-2-carboxamide]	5 to 25
CCOc1cncc(-c2cnc(C(=O)N[C@H](c3cc(NS(=O)(=O)C4CC4)ccn3)[C@H](C)O)s2)n1 [I-266, N-((1R,2S)-1-(4-(cyclopropanesulfonamido)pyridin-2-yl)-2-hydroxypropyl)-5-(6-ethoxypyrazin-2-yl)thiazole-2-carboxamide]	5 to 25
O=C(N[C@H](c1cc(NS(=O)(=O)C2CC2)ccn1)[C@@H]1COCCO1)c1ncc(-c2cnn3ccc(Cl)cc23)s1 [I-78, 5-(5-chloropyrazolo[1,5-a]pyridin-3-yl)-N-((R)-(4-(cyclopropanesulfonamido)pyridin-2-yl)((R)-1,4-dioxan-2-yl)methyl)thiazole-2-carboxamide]	5 to 25
CCOc1cncc(-c2cnc(C(=O)N[C@@H](CN3CC[C@@](C)(O)C3)c3cc(NS(=O)(=O)C4CC4)ccn3)s2)n1 [I-129, N-((S)-1-(4-(cyclopropanesulfonamido)pyridin-2-yl)-2-((R)-3-hydroxy-3-methylpyrrolidin-1-yl)ethyl)-5-(6-ethoxypyrazin-2-yl)thiazole-2-carboxamide]	50 to 100
CCOc1cncc(-c2ccc(C(=O)N[C@H](COC)c3cc(NS(=O)(=O)C4CC4)ccn3)cc2)n1 [I-280, (S)-N-(1-(4-(cyclopropanesulfonamido)pyridin-2-yl)-2-methoxyethyl)-4-(6-ethoxypyrazin-2-yl)benzamide]	25 to 50
CCOc1cncc(-c2cnc(C(=O)N[C@@H](CCNC3CC3)c3cc(NS(=O)(=O)C4CC4)ccn3)s2)n1 [I-185, (S)-N-(1-(4-(cyclopropanesulfonamido)pyridin-2-yl)-3-(cyclopropylamino)propyl)-5-(6-ethoxypyrazin-2-yl)thiazole-2-carboxamide]	50 to 100
CCOc1cncc(-c2cnc(C(=O)N[C@@H](CN3CCCC3)c3cccc(NS(=O)(=O)C(F)F)c3)s2)n1 (single isomer, unassigned) [I-38]	5 to 25
CCOc1cncc(-c2cnc(C(=O)N[C@H](c3cc(NS(=O)(=O)C4CC4)ncn3)[C@H]3CCOC3)s2)n1 [I-259, N-((S)-(6-(cyclopropanesulfonamido)pyrimidin-4-yl)((R)-tetrahydrofuran-3-yl)methyl)-5-(6-ethoxypyrazin-2-yl)thiazole-2-carboxamide]	5 to 25
CCOc1cncc(-c2cnc(C(=O)N[C@@H](c3cc(NS(=O)(=O)C4CC4)ccn3)[C@H](C)CN3CCCCC3)s2)n1 (stereo in doubt) [I-51, N-((1R,2R)-1-(4-(cyclopropanesulfonamido)pyridin-2-yl)-2-methyl-3-(piperidin-1-yl)propyl)-5-(6-ethoxypyrazin-2-yl)thiazole-2-carboxamide]	5 to 25

More lines, now with the values ahead:

IC50 [nM]	Structure (SMILES)
5 to 25	CCOc1cncc(-c2cnc(C(=O)N[C@@H](C[C@H]3COCCN3C)c3cccc(NS(=O)(=O)C(F)F)c3)s2)n1 [I-192, N-((S)-1-(3-((difluoromethyl)sulfonamido)phenyl)-2-((S)-4-methylmorpholin-3-yl)ethyl)-5-(6-ethoxypyrazin-2-yl)thiazole-2-carboxamide]
5 to 25	CCOc1cncc(-c2cnc(C(=O)N[C@@H](c3cc(NS(=O)(=O)C4CC4)ccn3)[C@H]3CCCO3)s2)n1 [I-62, N-((S)-(4-(cyclopropanesulfonamido)pyridin-2-yl)((R)-tetrahydrofuran-2-yl)methyl)-5-(6-ethoxypyrazin-2-yl)thiazole-2-carboxamide]
5 to 25	CCOc1cncc(-c2cnc(C(=O)N[C@H](c3cc(NS(=O)(=O)C4CC4)ccn3)[C@H](C)OC)s2)n1 (single isomer, unassigned) [I-47]
5 to 25	COCC[C@@H](NC(=O)c1ncc(-c2cnn3ccc(Cl)cc23)s1)c1cc(NS(=O)(=O)C2CC2)ccn1 (single isomer, unassigned) [I-2]
5 to 25	CCOc1cncc(-c2cnc(C(=O)N[C@@]3(c4cc(NS(=O)(=O)C5CC5)ccn4)CCOC3)s2)n1 (single isomer, unassigned) [I-71]
5 to 25	CCOc1cncc(-c2cnc(C(=O)N[C@H](c3cccc(NS(=O)(=O)C(F)F)c3)[C@@H](C)CO)s2)n1 [I-243, N-((1S,2R)-1-(3-((difluoromethyl)sulfonamido)phenyl)-3-hydroxy-2-methylpropyl)-5-(6-ethoxypyrazin-2-yl)thiazole-2-carboxamide]
5 to 25	O=C(N[C@@H](c1cccc(NS(=O)(=O)C(F)F)c1)C1CCOCC1)c1ncc(-c2cnn3ccc(Cl)cc23)s1 [I-197, (R)-5-(5-chloropyrazolo[1,5-a]pyridin-3-yl)-N-((3-((difluoromethyl)sulfonamido)phenyl)(tetrahydro-2H-pyran-4-yl)methyl)thiazole-2-carboxamide]
5 to 25	CCOc1cncc(-c2cnc(C(=O)NC3(c4cc(NS(=O)(=O)C5CC5)ccn4)CCN(C)C3)s2)n1 (centres unmarked) [I-182, N-(3-(4-(cyclopropanesulfonamido)pyridin-2-yl)-1-methylpyrrolidin-3-yl)-5-(6-ethoxypyrazin-2-yl)thiazole-2-carboxamide, formic acid salt]
5 to 25	O=C(N[C@@H](c1cc(NS(=O)(=O)C2CC2)ccn1)C1CCOCC1)c1ncc(-c2cnn3ccc(Cl)cc23)s1 [I-86, (R)-5-(5-chloropyrazolo[1,5-a]pyridin-3-yl)-N-((4-(cyclopropanesulfonamido)pyridin-2-yl)(tetrahydro-2H-pyran-4-yl)methyl)thiazole-2-carboxamide]
5 to 25	CCOc1cncc(-c2cnc(C(=O)N[C@H](CN3C[C@H]4COC[C@H]4C3)c3cc(NS(=O)(=O)C4CC4)ccn3)s2)n1 (single isomer, unassigned) [I-31]
5 to 25	CCOc1cncc(-c2cnc(C(=O)N[C@H](c3cc(NS(=O)(=O)C4CC4)ccn3)[C@@H](C)CN3CCCCC3)s2)n1 (stereo in doubt) [I-54, N-((1S,2S)-1-(4-(cyclopropanesulfonamido)pyridin-2-yl)-2-methyl-3-(piperidin-1-yl)propyl)-5-(6-ethoxypyrazin-2-yl)thiazole-2-carboxamide]
≤ 5	CCOc1cncc(-c2cnc(C(=O)N[C@@H](C[C@H]3CCCCN3C(C)C)c3cc(NS(=O)(=O)C4CC4)ccn3)s2)n1 (single isomer, unassigned) [I-28]
